Values after ≈ are worked out from the molar mass of the structure shown.
Test: Solubility of cholesterol in ethanol
Format: physicochemical
Details: organic solvent or mixture, room temperature, absence of other lipids and/or sterols, read-out: solubility limit in ethanol
Excerpt: Thus, a process is provided for raising the amount of an original lipid, sterol and/or blend of lipid(s) and/or sterol(s) that may be solubilized in a solvent (e.g., an alcoholic solvent, e.g., ethanol) by pre-mixing other lipid(s), sterol(s) and/or blend of lipid(s) and/or sterol(s), as oils, powders and/or in solvent(s), before adding such a pre-mixture to the original solubility-limited lipid, sterol and/or blend of lipid(s), thereby effectively raising the solubility limit of the original lipid in the solvent. […] Without wishing to be bound by theory, it is believed that the newly discovered ability to provide high concentration solutions of lipids/sterols at such elevated concentrations enhances the homogeneity of a lipid-anionic agent particle population, as compared to the concentrations at which such lipids/sterols are routinely used within the particle formulation process.
The above-described process schematically exemplified in FIG. 1, which is also referred to herein as “2141”, was not only distinguished from other tested processes in the order of addition of DsiRNA-lipid complexes and additional lipids in ethanol, but also was distinguished from other processes by the concentration of lipids and sterols that were solubilized in the additional lipids in ethanol solution. […]

## CC(C)CCC[C@@H](C)[C@H]1CC[C@H]2[C@@H]3CC=C4C[C@@H](O)CC[C@]4(C)[C@H]3CC[C@]12C [cholesterol]
  solubility: 10 to 11 mg/mL (≈ 25.9 to 28.4 mM)

— patent US11351265B2, “Process for formulating an anionic agent” (Dicerna Pharmaceuticals, Inc., priority 2013, dated 2022)
